# Measurements from patent US9884065B2, “Inhibiting activity of senescent cells using a glucocorticoid” (Buck Institute for Research on Aging, priority 2011, dated 2018).
# “Also recorded” adds a separate entry of the source.
# What was measured:
# IL-6 [1] = experiment: Initial drug screen (Prestwick Chemical Library), IL-6 ELISA of medium; format: cell-based, human; conditions: 2.5 μM, 48 hours, HCA2 fibroblasts, 0.2% serum
# Procedure: The initial drug screen was performed in a 96-well format using automated liquid handling with a Biomek FX (Beckman Coulter, CA). Senescent cells were plated 24 hours after X-irradiation at 7,500 cells per well in 96-well plates. Six days after plating the senescent cells, the pre-senescent cells were plated at 7,500 cells per well in 96-well plates. Twenty-four hours after pre-senescent plating, both pre-senescent and senescent cells were washed and incubated in low (0.2%) serum for 48 hours to arrest cell proliferation of the pre-senescent cells. […] Forty-eight hours after compound addition, the medium in each well was removed and frozen for assay by ELISA to quantitate the levels of IL-6. The cells, which remained in the wells after the medium was removed, were lysed and ATP levels were measured (ATPlite 1-step assay, Perkin Elmer, MA) to exclude compounds that lowered IL-6 through toxicity (cell death). Experimental wells in each plate were normalized to plate mean or same-plate DMSO controls for the ELISA and ATP assays, respectively.
# To identify small molecules that may be potential SASP modulators, a screening strategy that entailed administering compounds to parallel 96-well plates containing human fibroblasts (strain HCA2) that were either quiescent or senescent was developed. […] After 48 hours, the medium from each well was removed, and the cells were lysed. […] Cell lysates were assayed for ATP as a surrogate for cell number.
# HCA2 human fibroblasts = conditions: 2.5 μM, 48 hours
# Procedure: The initial drug screen was performed in a 96-well format using automated liquid handling with a Biomek FX (Beckman Coulter, CA). Senescent cells were plated 24 hours after X-irradiation at 7,500 cells per well in 96-well plates. Six days after plating the senescent cells, the pre-senescent cells were plated at 7,500 cells per well in 96-well plates. Twenty-four hours after pre-senescent plating, both pre-senescent and senescent cells were washed and incubated in low (0.2%) serum for 48 hours to arrest cell proliferation of the pre-senescent cells. Drugs from the Prestwick Chemical Library, which contains 1120 bio-available compounds in DMSO, were given to the cells at 2.5 μM in media containing 0.2% serum. Forty-eight hours after compound addition, the medium in each well was removed and frozen for assay by ELISA to quantitate the levels of IL-6. The cells, which remained in the wells after the medium was removed, were lysed and ATP levels were measured (ATPlite 1-step assay, Perkin Elmer, MA) to exclude compounds that lowered IL-6 through toxicity (cell death). Experimental wells in each plate were normalized to plate mean or same-plate DMSO controls for the ELISA and ATP assays, respectively.
# To identify small molecules that may be potential SASP modulators, a screening strategy that entailed administering compounds to parallel 96-well plates containing human fibroblasts (strain HCA2) that were either quiescent or senescent was developed. The compounds tested comprised the Prestwick Chemical Library, a collection of approximately 1,120 Federal Drug Administration-approved drugs. The compounds were added to duplicate wells at a single concentration (2.5 μM). After 48 hours, the medium from each well was removed, and the cells were lysed. […] Cell lysates were assayed for ATP as a surrogate for cell number.
# senescent cells [2] = experiment: Doxorubicin-induced senescent cells in tissues of p16-3MR mice (mRFP and p16INK4a mRNA); format: in vivo, mouse; conditions: doxorubicin 10 mg/kg vs untreated control mice
# From the text: Similar results were observed when the senescent cell accumulation was induced with the chemotherapeutic agent, doxorubicin. […] Various tissues were isolated (liver, heart, lung, kidney, and spleen) and measured for abundance of mRNAs encoding mRFP and p16INK4a as markers for senescent cells (see FIGS. 5A and 5B, respectively).
# B16 mouse melanoma cells [3] = experiment: Subcutaneous B16 melanoma in doxorubicin-treated p16-3MR mice; format: in vivo; conditions: for p16INK4a and mRFP expression in skin biopsies / tumor diameters: doxorubicin 10 mg/kg with or without GCV; for tumor diameters / growth/size of subcutaneous B16 melanoma tumors: 12 days after B16 injection; for growth/size of subcutaneous B16 melanoma tumors: doxorubicin 10 mg/kg, GCV 25 mg/kg daily for 7 days starting 7 days later
# Procedure: Briefly, p16-3MR transgenic mice were treated with vehicle (ctrl) or 10 mg/kg doxorubicin. Seven days after doxorubicin treatment, mice were treated daily with GCV (25 mg/kg) for 7 days or vehicle only. 3 days after the last GCV treatment, 4×10^5 B16 mouse melanoma cells were injected subcutaneously into the p16-3MR transgenic mice, and mice were sacrificed after 12 days for analysis.
# IL-6 [4] = experiment: IL-6 ELISA of conditioned media from X-irradiated senescent HCA2 fibroblasts; format: cell-based, human; conditions: 50 nM corticosterone or 100 nM cortisol; rIL-1α given six days after irradiation, 24 hours
# Procedure: To validate glucocorticoids as SASP regulators, they were added within 15 min after irradiation (unless otherwise indicated). For cells induced to senesce by MKK6 or RAS overexpression, glucocorticoid treatment started 16 hours after infection. Glucocorticoids were re-added in fresh media every other day. Six days after irradiation or selection, cells were given serum-free DMEM with or without glucocorticoid for 24 hours; the conditioned media were collected and frozen for ELISAs.
# Conditioned media were filtered and stored at −80° C. Cell numbers were determined in every experiment. ELISAs were performed using kits and procedures from PerkinElmer (IL-6 AL223F). Data were normalized and expressed as pg/ml/cell/24 h.
# To confirm the ability of corticosterone to suppress senescence-associated IL-6 secretion, fresh HCA2 fibroblast cultures were prepared, and senescence was induced by X-irradiation (10 Gy). Under these conditions, cells undergo growth arrest within 24-48 hours, but require 4-5 days before SASP components are detected in the medium (Coppe et al., 2008, PLoS Biol. 6:2853-2868; Rodier et al., 2009, Nature Cell Biol. 11:973-979; Coppe et al., 2010, PLoS ONE 5:e9188; Freund et al., 2011, EMBO J. 30:1536-1548). Varying concentrations of corticosterone were added immediately after irradiation, and the cells were maintained in the drug for 6 days. On the 6th day, the cells were incubated in serum-free medium with or without corticosterone, the conditioned medium was collected 24 h later, and the medium was assayed for IL-6 by ELISA. […] The ability of corticosterone to suppress IL-6 secretion by senescent cells was not peculiar to HCA2 cells.
# NF-κB = NF-κB reporter-luciferase transactivation assay; format: cell-based, human; conditions: 0.5 μM RU-486 or 2.5 ng mL^−1 IL-1α
# Procedure: Nuclear extracts were prepared using the nuclear extract kit (Active Motif), and NF-κB DNA binding was determined using the TransAM NF-κB p65 kit (Active Motif). For transactivation assays, cells infected with the NF-κB reporter-luciferase lentivirus were lysed in buffer (Promega), and luciferase activity was normalized to cell number, as described (Freund et al., 2011, EMBO J. 30:1536-1548).
# senescent cells [5] = experiment: Detection and clearance of senescent cells in irradiated p16-3MR transgenic mice (rLUC bioluminescence, SASP biomarker RNA); format: in vivo, mouse
# Procedure: Briefly, a group of p16-3MR transgenic mice were exposed to whole body ionizing radiation (7 Gy X-ray) and a control group of p16-3MR transgenic mice were mock-irradiated. After three months, the mice were treated with GCV (25 mg/kg) or vehicle only, and then at least two weeks later bioluminescence in tissues was examined after administering the rLUC substrate.
# B16 mouse melanoma cells [6] = experiment: B16 melanoma tail-vein injection in irradiated p16-3MR mice (primary tumors and metastases, fLUC bioluminescence); format: in vivo
# Procedure: Briefly, 10^6 B16 mouse melanoma cells, a highly aggressive cell line that is syngeneic with p16-3MR transgenic mice (C57B16 background), that express firefly luciferase (fLUC, to enable their detection by bioluminescence) were injected into the tail vein of the p16-3MR transgenic mice approximately three months after being either mock irradiated or irradiated, as described in Example 2. Irradiated mice were treated daily with GCV (25 mg/kg) or vehicle only for 7 days, and then 3 days following the last GCV dose, B16 mouse melanoma cells were injected into the mice. B16 mouse melanoma cells first colonize the lung, where they form primary tumors approximately two weeks after injection, and thereafter metastasize to distal tissues to form secondary tumors in, for example, the pancreas, liver and visceral fat. The bioluminescence markers, fLUC and rLUC are distinguishable because the enzymes use different substrates.
# [7] = irradiated + GCV, eighteen days after injection
compound,measurement,setting,value
C[C@]12CC[C@@H]3c4ccc(O)cc4CC[C@H]3[C@@H]1CC[C@@H]2O [estradiol-17-beta],IL-6 secretion (ELISA),IL-6 [1],suppressed IL-6 secretion
C[C@]12CC[C@@H](O)C[C@@H]1CC[C@@H]1[C@@H]2CC[C@]2(C)C(=O)CC[C@@H]12 [androsterone],IL-6 secretion (ELISA),IL-6 [1],suppressed IL-6 secretion
same,ATP levels,HCA2 human fibroblasts,without altering ATP levels
C/C(=C(\CCOP(=O)(O)O)SC(=O)c1ccccc1)N(C=O)Cc1cnc(C)nc1N [benfotiamine],IL-6 secretion (ELISA),IL-6 [1],suppressed IL-6 secretion
same,ATP levels,HCA2 human fibroblasts,without altering ATP levels
COc1cccc2c1C(=O)c1c(O)c3c(c(O)c1C2=O)C[C@@](O)(C(=O)CO)C[C@@H]3O[C@H]1C[C@H](N)[C@H](O)[C@H](C)O1 [doxorubicin],"mRFP and p16INK4a mRNA in liver, heart, lung, kidney, spleen",senescent cells [2],higher levels of mRFP and p16INK4a in all tissues
same,p16INK4a and mRFP expression in skin biopsies,B16 mouse melanoma cells [3],increased senescence
same,tumor diameters,B16 mouse melanoma cells [3],increased tumor sizes
same,growth/size of subcutaneous B16 melanoma tumors,B16 mouse melanoma cells [3],stimulated the growth of B16 melanoma cells; also recorded: Tumor growth was increased
Nc1cc(N2CCCCC2)nc(N)[n+]1[O-] [minoxidil],ATP levels,HCA2 human fibroblasts,without altering ATP levels
CC(C)(C)NC(=O)[C@H]1CC[C@H]2[C@@H]3CC[C@H]4NC(=O)C=C[C@]4(C)[C@H]3CC[C@]12C [finasteride],IL-6 secretion (ELISA),IL-6 [1],suppressed IL-6 secretion
same,ATP levels,HCA2 human fibroblasts,without altering ATP levels
C#C[C@]1(O)CC[C@H]2[C@@H]3CCC4=CC(=O)CC[C@@H]4[C@H]3CC[C@@]21CC [norgestrel-(−)-D],IL-6 secretion (ELISA),IL-6 [1],suppressed IL-6 secretion
Cc1ccc(S(=O)(=O)NC(=O)NN2CC3CCCC3C2)cc1 (stereo not drawn) [gliclazide],IL-6 secretion (ELISA),IL-6 [1],suppressed IL-6 secretion
same,ATP levels,HCA2 human fibroblasts,without altering ATP levels
Recombinant IL-1α: recombinant IL-1α protein added to glucocorticoid-treated senescent cells,"IL-6 secretion suppressed by corticosterone and cortisol, added recombinant IL-1α",IL-6 [4],rescued the suppression of IL-6 secretion
same,"NF-κB transactivation activity, co-treatment with either glucocorticoid",NF-κB,rescued NF-κB transactivation activity
"Nc1nc(O)c2ncn(COC(CO)CO)c2n1 [GCV, ganciclovir]",p16INK4a and mRFP expression in skin biopsies,B16 mouse melanoma cells [3],low levels of p16INK4a and mRFP expression
same,tumor diameters,B16 mouse melanoma cells [3],smaller tumor sizes
same,growth/size of subcutaneous B16 melanoma tumors,B16 mouse melanoma cells [3],substantially reduced the size of B16 melanoma tumors; also recorded: much smaller primary tumors
same,rLUC expression levels (bioluminescence in tissues),"senescent cells [5]; irradiated (7 Gy) p16-3MR mice, GCV 25 mg/kg three months after irradiation, lung tissue shown",comparable to unirradiated mice
same,"p16INK4a (p16), IL-6, MMP-3 and mRFP RNA expression levels",senescent cells [5]; irradiated p16-3MR mice treated with GCV,"returned p16INK4a (p16), IL-6, MMP-3 and mRFP expression levels to those found in the unirradiated control mice"
same,"metastatic B16 melanoma cells, Fat (estimated % of total area of fat)",B16 mouse melanoma cells [6]; 18 days after injection,25%
same,"metastatic B16 melanoma cells, Liver",B16 mouse melanoma cells [6]; 18 days after injection,7 ± 3.6 nodules
same,"metastatic B16 melanoma cells, Lung (luminescent nodules)","B16 mouse melanoma cells [6]; 18 days after injection, TNTC = too numerous to count",TNTC
same,B16 cells as detected by luminescence,"B16 mouse melanoma cells [6]; irradiated + GCV, day 18",still showed relatively low levels of B16 cells
same,"metastases in distal organs (liver, fat)",B16 mouse melanoma cells [6]; [7],almost devoid of metastases
same,primary lung tumors,B16 mouse melanoma cells [6]; [7],large primary lung tumors were evident
same,B16 cells as detected by luminescence,"B16 mouse melanoma cells [6]; irradiated + GCV, fifteen days after injection",relatively low levels of B16 cells
same,primary tumors and metastases,"B16 mouse melanoma cells [6]; irradiated mice, GCV 25 mg/kg daily for 7 days, 15 days after B16 injection",much smaller primary tumors and many fewer metastases
Cc1ccc(S(=O)(=O)NC(=O)NN2CCCCCC2)cc1 [tolazamide],IL-6 secretion (ELISA),IL-6 [1],suppressed IL-6 secretion
same,ATP levels,HCA2 human fibroblasts,without altering ATP levels
CCCNC(=O)NS(=O)(=O)c1ccc(Cl)cc1 [chlorpropamide],IL-6 secretion (ELISA),IL-6 [1],suppressed IL-6 secretion
same,ATP levels,HCA2 human fibroblasts,without altering ATP levels
C[C@]12C=CC(=O)C=C1CC[C@@H]1[C@@H]2C(=O)C[C@@]2(C)[C@H]1CC[C@]2(O)C(=O)CO [prednisone],IL-6 secretion (ELISA),IL-6 [1],suppressed IL-6 secretion
same,ATP levels,HCA2 human fibroblasts,without altering ATP levels
